Consider ten compounds from ChEMBL document CHEMBL6092189, “Synthesis of kanamycin-azole hybrids and investigation of their antifungal activities” (Bioorg Med Chem, 2024).

SMILES strings stand for the structures. In brackets after ≈: the same amount, converted by molar mass. Activity calls are given as the source filed them. The calls are words filed in the database; no cut-off is given here. Some results are limits rather than exact numbers.

The subject of data set [1] is Escherichia coli. Briefly: Antibacterial activity against Escherichia coli ATCC 25922 assessed as inhibition of bacterial growth incubated for 18 hrs by two-fold dilution method. It counts as functional.
Data set [2] has as its system Candida tropicalis. Briefly: Antifungal activity against Candida tropicalis 95-41 assessed as inhibition of fungal growth incubated for 48 hrs by two-fold dilution assay. The data set is classed as functional.
In data set [3] the test system is Cryptococcus neoformans. Briefly: Antifungal activity against Cryptococcus neoformans VR-54 assessed as inhibition of fungal growth incubated for 48 hrs by two-fold dilution assay. It counts as functional.
For data set [4], the system named is Cryptococcus neoformans. Briefly: Antifungal activity against Cryptococcus neoformans H99 assessed as inhibition of fungal growth incubated for 48 hrs by two-fold dilution method. The data set is classed as functional.
The test system of data set [5] is Diutina rugosa. Description: Antifungal activity against Candida rugosa 95-967 assessed as inhibition of fungal growth incubated for 48 hrs by two-fold dilution assay. The data set is classed as functional.
Data set [6] is described as follows: Cytotoxicity against human HeLa cells assessed as reduction in cell viability incubated for 24 hrs by MTT assay. The data set is classed as toxicity, cell-based. In general terms: Tetrazolium dyes change colour on reduction, which living cells bring about.
The subject of data set [7] is Staphylococcus aureus. Description: Antibacterial activity against Staphylococcus aureus ATCC 25923 assessed as inhibition of bacterial growth incubated for 18 hrs by two-fold dilution method. It counts as functional.
Data set [8] has as its system Candida albicans. Description: Antifungal activity against Candida albicans MYA2876 assessed as inhibition of fungal growth incubated for 48 hrs by two-fold dilution method. The data set is classed as functional.
In data set [9] the test system is Candida parapsilosis. Description: Antifungal activity against azole-resistant Candida parapsilosis Cas08-0490 assessed as inhibition of fungal growth incubated for 48 hrs by two-fold dilution method. The data set is classed as functional. The following applies: Lodderomyces parapsilosis.
The test system of data set [10] is Candida albicans. Briefly: Antifungal activity against azole-resistant Candida albicans 64124 assessed as inhibition of fungal growth incubated for 48 hrs by two-fold dilution method. The data set is classed as functional.
For data set [11], the system named is Diutina rugosa. Briefly: Antifungal activity against Candida rugosa 95-967 assessed as fractional inhibitory concentration index incubated for 48 hrs in presence of kanamycin by microdilution checkerboard assay. The data set is classed as functional. A general note: Dilution methods test growth across graded concentrations, often in twofold steps.
Data set [12] deals with Cryptococcus neoformans. Description: Antifungal activity against Cryptococcus neoformans VR-54 assessed as fractional inhibitory concentration index incubated for 48 hrs in presence of kanamycin by microdilution checkerboard assay. It counts as functional.
For data set [13], the system named is Candida albicans. Briefly: Antifungal activity against azole-resistant Candida albicans 64124 assessed as fractional inhibitory concentration index incubated for 48 hrs in presence of kanamycin by microdilution checkerboard assay. It counts as functional.
Data set [14] deals with Candida albicans. Briefly: Antifungal activity against Candida albicans MYA2876 assessed as fractional inhibitory concentration index incubated for 48 hrs in presence of kanamycin by microdilution checkerboard assay. The data set is classed as functional.
The test system of data set [15] is Candida tropicalis. Description: Antifungal activity against Candida tropicalis 95-41 assessed as fractional inhibitory concentration index incubated for 48 hrs in presence of kanamycin by microdilution checkerboard assay. The data set is classed as functional.
In data set [16] the test system is Cryptococcus neoformans. Briefly: Antifungal activity against Cryptococcus neoformans H99 assessed as fractional inhibitory concentration index incubated for 48 hrs in presence of kanamycin by microdilution checkerboard assay. The data set is classed as functional.
In data set [17] the test system is Candida parapsilosis. Description: Antifungal activity against azole-resistant Candida parapsilosis Cas08-0490 assessed as fractional inhibitory concentration index incubated for 48 hrs in presence of kanamycin by microdilution checkerboard assay. The data set is classed as functional.
In data set [18] the test system is Cell membrane. Briefly: Induction of membrane permeabilization in Candida albicans 64124 assessed as pore formation by measuring increase in fluorescence intensity at 1/4X MIC measured after 5 mins by SYTOX Green dye based fluorescence analysis.
The test system of data set [19] is Cell membrane. Description: Induction of membrane permeabilization in Candida rugosa 95-967 assessed as pore formation by measuring fluorescence intensity at 256 ug/ml measured after 25 mins by SYTOX Green dye based fluorescence analysis. The data set is classed as subcellular. The conditions noted are these: Diutina rugosa, dose 256.0 µg/ml.
The test system of data set [20] is Cell membrane. Briefly: Induction of membrane permeabilization in azole-resistant Candida parapsilosis Cas08-0490 assessed as pore formation by measuring fluorescence intensity at 256 ug/ml measured after 25 mins by SYTOX Green dye based fluorescence analysis. It counts as subcellular. The following applies: dose 256.0 µg/ml.
The subject of data set [21] is Cell membrane. Description: Induction of membrane permeabilization in Candida albicans MYA2876 assessed as pore formation by measuring increase in fluorescence intensity at 1/4X MIC measured after 5 mins by SYTOX Green dye based fluorescence analysis.

The term MIC denotes the lowest concentration found to suppress growth. By IC50 is commonly meant the point on the concentration scale where inhibition reaches its midpoint. On to `Cl.Cl.Cl.Cl.NC[C@H]1O[C@H](O[C@H]2[C@H](O)[C@@H](O[C@H]3O[C@H](Cn4cc(CNC(=O)c5ccc(Cl)cc5)nn4)[C@@H](O)[C@H](N)[C@H]3O)[C@H](N)C[C@@H]2N)[C@H](O)[C@@H](O)[C@@H]1O`, for which the MIC in data set [1] is 128 µg/mL; in data set [2], no less than 256 µg/mL; in data set [3], no less than 256 µg/mL; in [4] it was 128 µg/mL; in data set [5], no less than 256 µg/mL; in data set [7], 64 µg/mL. Further, the MIC in data set [8], in data set [9] and in data set [10] was no less than 256 µg/mL each time. The IC50 at 24 h in [6] was greater than 100 µg/mL.

For `OC(Cn1cncn1)c1ccc(Cl)cc1Cl` (stereo not drawn), the “fractional inhibitory concentration index (FICI)” value is 2.25 in [11]; 1 in data set [12]; 1 in [13]; 1 in data set [14]; 1.5 in [15]; 1 in data set [16]. In [17], the “fractional inhibitory concentration index (FICI)” value was determined as 2. Further, the MIC in data set [2] was 32 µg/mL (≈ 124 µM); in data set [3], 32 µg/mL (≈ 124 µM); in data set [4], 64 µg/mL (≈ 248 µM); in data set [5], 64 µg/mL (≈ 248 µM); in data set [8], 64 µg/mL (≈ 248 µM); in data set [9] it was 64 µg/mL (≈ 248 µM). For the same compound, the MIC in data set [10] amounted to 128 µg/mL (≈ 496 µM).

As for `NC[C@H]1O[C@H](O[C@H]2[C@H](O)[C@@H](O[C@H]3O[C@H](CO)[C@@H](O)[C@H](N)[C@H]3O)[C@H](N)C[C@@H]2N)[C@H](O)[C@@H](O)[C@@H]1O` [KANAMYCIN], the MIC was 4 µg/mL (≈ 8.26 µM) in data set [1]; no less than 256 µg/mL in data set [2]; no less than 256 µg/mL in [3]; 128 µg/mL (≈ 264 µM) in data set [4]; no less than 256 µg/mL in [5]; 1 µg/mL (≈ 2.06 µM) in data set [7]. The MIC in [8], in [9] and in [10] was no less than 256 µg/mL throughout.

As for `Cl.Cl.Cl.Cl.NC[C@H]1O[C@H](O[C@H]2[C@H](O)[C@@H](O[C@H]3O[C@H](Cn4cc(COC(Cn5cncn5)c5ccc(Cl)cc5Cl)nn4)[C@@H](O)[C@H](N)[C@H]3O)[C@H](N)C[C@@H]2N)[C@H](O)[C@@H](O)[C@@H]1O` (stereo partly drawn), the outcome in data set [18] and in [21] was Active. In addition, the MIC is no less than 256 µg/mL in [1]; 32 µg/mL in data set [2]; 32 µg/mL in [3]; 16 µg/mL in data set [4]; no less than 256 µg/mL in data set [5]; 128 µg/mL in [7]. The minimum inhibitory concentration (MIC) in data set [8] was 16 µg/mL; in data set [9] it was no less than 256 µg/mL; in data set [10], 16 µg/mL. Moreover, the outcome in data set [19] and in data set [20] was inactive. In addition, in [6], the IC50 at 24 h was greater than 100 µg/mL.

In the case of `Cl.Cl.Cl.Cl.NC[C@H]1O[C@H](O[C@H]2[C@H](O)[C@@H](O[C@H]3O[C@H](Cn4cc(COC(Cn5ccnc5)c5ccc(F)cc5F)nn4)[C@@H](O)[C@H](N)[C@H]3O)[C@H](N)C[C@@H]2N)[C@H](O)[C@@H](O)[C@@H]1O` (stereo partly drawn), the MIC in data set [1] is 64 µg/mL; in data set [2], 8 µg/mL; in data set [3] it was 128 µg/mL; in data set [4], 64 µg/mL; in data set [5], no less than 256 µg/mL; in [7], 64 µg/mL. Besides, the minimal inhibitory concentration (MIC) in data set [8] is 128 µg/mL; in [9] it was no less than 256 µg/mL; in [10], 128 µg/mL. The IC50 at 24 h in data set [6] was greater than 100 µg/mL.

In the case of `Cl.Cl.Cl.Cl.NC[C@H]1O[C@H](O[C@H]2[C@H](O)[C@@H](O[C@H]3O[C@H](Cn4cc(CNC(=O)c5ccccc5Cl)nn4)[C@@H](O)[C@H](N)[C@H]3O)[C@H](N)C[C@@H]2N)[C@H](O)[C@@H](O)[C@@H]1O`, the MIC is 128 µg/mL in data set [1]; no less than 256 µg/mL in data set [2]; no less than 256 µg/mL in [3]; 64 µg/mL in data set [4]; no less than 256 µg/mL in data set [5]; no less than 256 µg/mL in [7]. For the same compound, the MIC in data set [8], in [9] and in data set [10] was no less than 256 µg/mL each time. The IC50 at 24 h in data set [6] is greater than 100 µg/mL.

For `Cl.Cl.Cl.Cl.NC[C@H]1O[C@H](O[C@H]2[C@H](O)[C@@H](O[C@H]3O[C@H](Cn4cc(CNC(=O)c5ccc(Cl)cc5Cl)nn4)[C@@H](O)[C@H](N)[C@H]3O)[C@H](N)C[C@@H]2N)[C@H](O)[C@@H](O)[C@@H]1O`, the MIC was 128 µg/mL in data set [1]; no less than 256 µg/mL in data set [2]; no less than 256 µg/mL in data set [3]; no less than 256 µg/mL in data set [4]; no less than 256 µg/mL in [5]; 128 µg/mL in [7]. Also, the MIC in data set [8], in data set [9] and in data set [10] was no less than 256 µg/mL in each case. The IC50 at 24 h in data set [6] is greater than 100 µg/mL.

On to `Cl.Cl.Cl.Cl.NC[C@H]1O[C@H](O[C@H]2[C@H](O)[C@@H](O[C@H]3O[C@H](Cn4cc(COC(Cn5cncn5)c5ccc(F)cc5F)nn4)[C@@H](O)[C@H](N)[C@H]3O)[C@H](N)C[C@@H]2N)[C@H](O)[C@@H](O)[C@@H]1O` (stereo partly drawn), for which the MIC in data set [1], in [2], in data set [3], in data set [4], in data set [5] and in data set [7] was no less than 256 µg/mL each time. Also, the MIC in data set [8], in [9] and in data set [10] was no less than 256 µg/mL each time. Also, the IC50 at 24 h in data set [6] was greater than 100 µg/mL.

Regarding `Cl.Cl.Cl.Cl.NC[C@H]1O[C@H](O[C@H]2[C@H](O)[C@@H](O[C@H]3O[C@H](Cn4cc(COC(Cn5ccnc5)c5ccc(Cl)cc5Cl)nn4)[C@@H](O)[C@H](N)[C@H]3O)[C@H](N)C[C@@H]2N)[C@H](O)[C@@H](O)[C@@H]1O` (stereo partly drawn), the result in data set [18] and in data set [21] was Active. Also, the MIC in data set [1] is no less than 256 µg/mL; in data set [2], 64 µg/mL; in data set [3], 64 µg/mL; in data set [4], 64 µg/mL; in data set [5], no less than 256 µg/mL; in data set [7], 128 µg/mL. The figures for the MIC in [8], in data set [9] and in data set [10] were 128 µg/mL, no less than 256 µg/mL and 32 µg/mL, respectively. Moreover, the result in [19] and in data set [20] was inactive. The IC50 at 24 h in [6] is greater than 100 µg/mL.

In the case of `OC(Cn1cncn1)(Cn1cncn1)c1ccc(F)cc1F` [FLUCONAZOLE], the MIC in [2] was 2 µg/mL (≈ 6.53 µM); in data set [3] it was 1 µg/mL (≈ 3.27 µM); in data set [4], 1 µg/mL (≈ 3.27 µM); in data set [5] it was 8 µg/mL (≈ 26.1 µM); in data set [8] it was 128 µg/mL (≈ 418 µM); in data set [9], 16 µg/mL (≈ 52.2 µM). The minimal inhibitory concentration (MIC) in data set [10] is no less than 256 µg/mL.
